Measurements published in patent US7217409B2, “Alkanoic acid derivatives” (SmithKline Beecham Corporation, priority 2000, dated 2007).

Legend:
[1] = Mean particle size of salmeterol xinafoate/HFA 134a suspension by image analysis (Galai CIS-100 particle size analyser); type: physicochemical; settings: for Mean Length: salmeterol xinafoate in HFA 134a, 25 μg per actuation, 10% w/w (relative to drug) of surfactant compound, crimped glass bottles, equivalent diameter, average of 4 determinations; for spread of the range of particles size: salmeterol xinafoate in HFA 134a with 10% w/w surfactant compound, versus control without surfactant
Protocol: Salmeterol xinafoate formulations in HFA 134a, of strength 25 μg per actuation, and 10% w/w (relative to drug) of the relevant surfactant compound of formula (I) were prepared in crimped glass bottles using salmeterol xinafoate (8.7 mg), HFA 134a (18 g) and the relevant compound (0.87 mg). The control was prepared without the addition of a surfactant. […] In this measurement, particle size is represented as the equivalent diameter of a circle of equal area to the object. The mean is the average of 4 determinations. The particle size measurement was obtained by transferring the suspensions to a pressurised cell, and video-imaging the sample under shear via a microscope objective. The equivalent diameter is defined as the diameter of a circle of equal area to the object.
The mean equivalent diameter can be weighted by number, length or volume. e.g. For three particles with equivalent diameters of x, y and z:
This is seen by the marked reduction in average particle size (“mean length”) when a compound of formula (I) is incorporated into the formulation. Futhermore the spread of the range of particles size was reduced in some cases (especially Examples 5 and 7).

[2] = Emitted dose and fine particle mass by Anderson Cascade Impactor stack; type: physicochemical; settings: salmeterol xinafoate in HFA 134a, 25 μg per actuation, 10% w/w surfactant compound, aluminum canisters; beginning of use; mean of two determinations
Protocol: Data were obtained at the beginning of use of the device. Salmeterol xinafoate formulations in HFA 134a, of strength 25 μg per actuation, and 10% w/w (relative to drug) of the relevant surfactant compound of formula (I) were prepared in standard aluminum canisters. Control 1 was prepared at the same time as samples containing examples 2, 5, 6 and 7 whereas control 2 was prepared separately. The analysis of aerosol formulations using such stacks is well known to person skilled in the art. The results are presented as the mean of two determinations.
These samples also show an increase in the absolute value of the FPM fraction in most cases.

Row | Mean Length [1] [μm] | % FPM [2] [%] | FPM (fine particle mass, sum of stages 3 to 5) [2] [µg] | Total Dose Emitted [2] [µg] | Total Emitted Ex-Device [2] [µg] | spread of the range of particles size [1] | Compound
1 | 27.1 | 38.8 | 8.7 | 22.4 | 18.8 | – | COCCOCCOCCOCCOCCOCCOCC(=O)O [Example 2, 2,5,8,11,14,17,20-Heptaoxadocosan-22-oic acid]
2 | 23.8 | 37.2 | 8.6 | 23.0 | 19.4 | reduced | O=C(O)COCCOCCOCCOCCOCCOCCOCC(F)(F)F [Example 5, 23,23,23-Trifluoro-3,6,9,12,15,18,21-heptaoxatricosan-1-oic acid]
3 | 23.7 | 33.2 | 7.1 | 21.4 | 17.9 | – | O=C(O)COCCOCCOCC(F)(F)F [Example 6, {[2-({2-[(2,2,2-Trifluoroethyl)oxy]ethyl}oxy)ethyl]oxy}acetic acid]
4 | 28.6 | 38.7 | 8.5 | 21.9 | 18.4 | reduced | COCCOCCOCCOCCOCCOCCOCCOCCOCCOCC(=O)O [Example 7, 2,5,8,11,14,17,20,23,26,29-Decaoxahentriacontan-31-oic acid]
